The values below come from ChEMBL document CHEMBL1142248, “Structure-activity relationships and pharmacokinetic parameters of quinoline acylsulfonamides as potent and selective antagonists of the EP(4) receptor” (Bioorg Med Chem Lett, 2008).

By Ki is commonly meant the equilibrium dissociation constant of an inhibitor or competing ligand from its target. As usually defined, the ED50 is the midpoint of the dose-response relation.

Each structure is given as a SMILES string.

For assay [1], the target named is T1, Prostaglandin E2 receptor EP4 subtype (Homo sapiens, UniProt P35408). The experiment in a line: Binding affinity to human EP4 receptor expressed in HEK293 cells. It is filed as cell-based.
T1 sequence (P35408 whole entry): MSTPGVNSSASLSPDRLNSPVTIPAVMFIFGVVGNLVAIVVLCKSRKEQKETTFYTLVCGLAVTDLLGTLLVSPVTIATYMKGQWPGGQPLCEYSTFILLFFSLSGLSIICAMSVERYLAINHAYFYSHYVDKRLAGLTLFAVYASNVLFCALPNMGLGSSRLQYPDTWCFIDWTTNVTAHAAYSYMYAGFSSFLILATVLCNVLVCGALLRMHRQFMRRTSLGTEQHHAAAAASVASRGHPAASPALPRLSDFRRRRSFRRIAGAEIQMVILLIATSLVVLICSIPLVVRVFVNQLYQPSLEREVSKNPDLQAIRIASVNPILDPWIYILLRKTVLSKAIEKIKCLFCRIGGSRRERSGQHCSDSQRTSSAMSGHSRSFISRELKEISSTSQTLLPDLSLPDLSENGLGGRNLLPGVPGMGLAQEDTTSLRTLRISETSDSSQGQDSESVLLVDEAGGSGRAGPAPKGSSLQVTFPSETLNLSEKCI
The target in assay [2] is T1, Prostaglandin E2 receptor EP4 subtype. The experiment in a line: Binding affinity to human EP4 receptor expressed in HEK293 cells in presence of 10% human serum. It is filed as cell-based.
In the next assay the target is Prostacyclin receptor (Homo sapiens, UniProt P43119). The experiment in a line: Binding affinity to human IP receptor expressed in HEK293 cells. It is filed as cell-based.
Prostacyclin receptor, sequence (P43119 whole entry): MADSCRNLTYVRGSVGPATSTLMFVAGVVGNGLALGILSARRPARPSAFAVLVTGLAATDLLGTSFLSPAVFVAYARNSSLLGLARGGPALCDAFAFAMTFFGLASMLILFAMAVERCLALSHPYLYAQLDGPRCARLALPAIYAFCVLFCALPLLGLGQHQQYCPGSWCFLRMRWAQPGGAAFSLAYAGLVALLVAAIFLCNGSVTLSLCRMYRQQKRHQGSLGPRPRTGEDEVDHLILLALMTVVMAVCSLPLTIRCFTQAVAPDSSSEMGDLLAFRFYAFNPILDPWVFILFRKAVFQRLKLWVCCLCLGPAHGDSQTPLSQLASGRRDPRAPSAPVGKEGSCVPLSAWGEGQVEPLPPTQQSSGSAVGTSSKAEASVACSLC
Assay [3] deals with Prostaglandin F2-alpha receptor (Homo sapiens, UniProt P43088). The experiment in a line: Binding affinity to human FP receptor expressed in HEK293 cells. It is filed as cell-based.
Prostaglandin F2-alpha receptor, sequence (P43088 whole entry): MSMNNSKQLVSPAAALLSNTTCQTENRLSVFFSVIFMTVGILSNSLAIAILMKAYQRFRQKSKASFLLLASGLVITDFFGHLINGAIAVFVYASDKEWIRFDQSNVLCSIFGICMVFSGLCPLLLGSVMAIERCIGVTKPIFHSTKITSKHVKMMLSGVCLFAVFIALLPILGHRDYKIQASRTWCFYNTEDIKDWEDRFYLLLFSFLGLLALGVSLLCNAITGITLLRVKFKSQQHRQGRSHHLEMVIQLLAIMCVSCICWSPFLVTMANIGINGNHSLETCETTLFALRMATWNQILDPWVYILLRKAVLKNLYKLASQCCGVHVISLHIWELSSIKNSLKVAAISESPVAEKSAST
Assay [4] has as its target T2, Prostaglandin D2 receptor (Homo sapiens, UniProt Q13258).
T2 sequence (Q13258 whole entry): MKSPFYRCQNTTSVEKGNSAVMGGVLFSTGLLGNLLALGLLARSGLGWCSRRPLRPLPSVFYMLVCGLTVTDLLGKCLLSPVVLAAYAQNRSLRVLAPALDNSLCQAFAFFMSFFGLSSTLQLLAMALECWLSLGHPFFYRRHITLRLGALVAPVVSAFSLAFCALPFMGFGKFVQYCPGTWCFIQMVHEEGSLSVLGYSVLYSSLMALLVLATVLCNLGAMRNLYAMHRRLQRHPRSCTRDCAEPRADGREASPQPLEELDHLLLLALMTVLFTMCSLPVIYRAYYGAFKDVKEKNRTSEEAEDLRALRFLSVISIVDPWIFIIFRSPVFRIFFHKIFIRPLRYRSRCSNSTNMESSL
The experiment in a line: Binding affinity to human DP receptor expressed in HEK293 cells. It is filed as cell-based.

In a further assay the target is T3, Thromboxane A2 receptor (Homo sapiens, UniProt P21731).
T3 sequence (P21731 whole entry): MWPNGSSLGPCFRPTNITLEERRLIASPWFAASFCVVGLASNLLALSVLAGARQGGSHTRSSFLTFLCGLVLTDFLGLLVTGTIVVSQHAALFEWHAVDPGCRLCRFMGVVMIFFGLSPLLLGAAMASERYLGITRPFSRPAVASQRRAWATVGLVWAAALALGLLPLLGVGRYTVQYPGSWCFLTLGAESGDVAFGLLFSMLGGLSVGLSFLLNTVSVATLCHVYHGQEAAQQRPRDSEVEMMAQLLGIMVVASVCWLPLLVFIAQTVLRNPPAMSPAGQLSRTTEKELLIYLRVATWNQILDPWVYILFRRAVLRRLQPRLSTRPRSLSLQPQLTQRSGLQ
As to the kind of experiment: Binding affinity to human TP receptor expressed in HEK293 cells. It is filed as cell-based.

Assay [5] has as its target T4, Prostaglandin E2 receptor EP1 subtype (Homo sapiens, UniProt P34995).
T4 sequence (P34995 whole entry): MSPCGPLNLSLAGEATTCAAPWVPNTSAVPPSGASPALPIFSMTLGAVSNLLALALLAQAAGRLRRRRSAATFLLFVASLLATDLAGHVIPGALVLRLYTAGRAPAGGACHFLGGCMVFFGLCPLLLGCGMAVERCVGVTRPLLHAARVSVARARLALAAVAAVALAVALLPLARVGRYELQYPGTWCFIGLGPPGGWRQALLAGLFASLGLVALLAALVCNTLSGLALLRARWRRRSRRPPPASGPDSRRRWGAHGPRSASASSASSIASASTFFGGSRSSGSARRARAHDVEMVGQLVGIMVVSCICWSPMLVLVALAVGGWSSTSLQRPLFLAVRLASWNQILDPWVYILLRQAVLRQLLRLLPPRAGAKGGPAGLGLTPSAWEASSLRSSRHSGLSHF
As to the kind of experiment: Binding affinity to human EP1 receptor expressed in HEK293 cells. It is filed as cell-based.

Assay [6] has as its target Prostaglandin E2 receptor EP2 subtype (Homo sapiens, UniProt P43116). The experiment in a line: Binding affinity to human EP2 receptor expressed in HEK293 cells. It is filed as cell-based.
Assay [7] deals with T5, Prostaglandin E2 receptor EP3 subtype (Homo sapiens, UniProt P43115).
T5 sequence (P43115 whole entry): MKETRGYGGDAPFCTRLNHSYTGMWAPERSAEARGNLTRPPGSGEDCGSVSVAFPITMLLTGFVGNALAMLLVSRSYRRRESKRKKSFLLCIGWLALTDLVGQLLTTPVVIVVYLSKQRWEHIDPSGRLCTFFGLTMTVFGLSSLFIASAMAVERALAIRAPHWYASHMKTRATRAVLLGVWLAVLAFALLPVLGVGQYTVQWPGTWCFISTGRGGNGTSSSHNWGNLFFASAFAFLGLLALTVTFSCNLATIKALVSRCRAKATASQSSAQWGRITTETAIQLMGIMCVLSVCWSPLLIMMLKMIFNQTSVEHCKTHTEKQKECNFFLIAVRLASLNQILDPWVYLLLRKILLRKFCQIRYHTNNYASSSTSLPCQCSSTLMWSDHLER
The experiment in a line: Binding affinity to human EP3 receptor expressed in HEK293 cells. It is filed as cell-based.

The species entered for a further assay is Rattus norvegicus. As to the kind of experiment: Antiinflammatory activity against adjuvant-induced rat arthritis model. It is filed as functional.

Prostaglandin E2 receptor EP2 subtype, sequence (P43116 whole entry): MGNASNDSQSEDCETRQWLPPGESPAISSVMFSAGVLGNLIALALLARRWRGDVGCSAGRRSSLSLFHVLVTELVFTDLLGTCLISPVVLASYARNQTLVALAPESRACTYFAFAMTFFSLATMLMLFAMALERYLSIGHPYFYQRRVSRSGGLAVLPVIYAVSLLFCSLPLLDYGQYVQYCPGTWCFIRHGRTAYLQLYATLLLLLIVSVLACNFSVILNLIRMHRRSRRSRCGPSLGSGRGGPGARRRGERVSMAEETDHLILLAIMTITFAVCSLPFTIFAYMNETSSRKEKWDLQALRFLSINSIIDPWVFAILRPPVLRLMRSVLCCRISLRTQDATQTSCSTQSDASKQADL

Regarding `CCOc1c2c(c(OCC)c3ncccc13)CN(c1ccc(CS(=O)(=O)NC(=O)C3(c4ccccc4OC)CC3)cc1C)C2=O`, the results for the inhibitory constant (Ki) in assay [1] and in assay [2] were 0.55 nM and 4.2 nM, respectively.
For `CCOc1c2c(c(OCC)c3ccccc13)C(=O)N(c1ccc(CS(=O)(=O)NC(=O)CCc3ccsc3)cc1)C2`, in that order: 4.2 nM and more than 4000 nM.
For the compound `CCOc1c2c(c(OCC)c3ncccc13)CN(c1ccc(CS(=O)(=O)NC(=O)Cc3ccccc3OC)cc1C)C2=O`, the inhibition constant Ki on Prostacyclin receptor is more than 7000 nM; in assay [1] it was 0.74 nM; in [3], 2000 nM; in assay [4], 1200 nM; on Thromboxane A2 receptor it was 630 nM; in assay [2], 3.6 nM. The inhibitory constant (Ki) was more than 7000 nM in [5], 1900 nM in assay [6] and 4000 nM in [7].
Take `CCOc1c2c(c(OCC)c3ccccc13)C(=O)N(c1ccc(CS(=O)(=O)NC(=O)Cc3cccc4ccccc34)cc1)C2`: the Ki stood at 0.43 nM in assay [1] and 4.8 nM in assay [2].
For `CCOc1c2c(c(OCC)c3ncccc13)CN(c1ccc(CS(=O)(=O)NC(=O)Cc3ccccc3Cl)cc1C)C2=O` the same measures were 0.27 nM and 37 nM.
For `CCOc1c2c(c(OCC)c3ccccc13)C(=O)N(c1ccc(CS(=O)(=O)NC(=O)Cc3cc(OC)ccc3OC)cc1)C2`, in that order: 0.37 nM and 38 nM.
For `CCOc1c2c(c(OCC)c3ccccc13)C(=O)N(c1ccc(CS(=O)(=O)NC(=O)COc3ccccc3)cc1)C2` the same measures were 0.38 nM and 1200 nM.
For `CCOc1c2c(c(OCC)c3ccccc13)C(=O)N(c1ccc(CS(=O)(=O)NC(=O)Cc3c(C)cc(C)cc3C)cc1)C2`, the Ki was found to be 0.43 nM in assay [1] and 380 nM in assay [2].
For `CCOc1c2c(c(OCC)c3ncccc13)CN(c1ccc(CS(=O)(=O)NC(=O)Cc3ccncc3)cc1C)C2=O` the same measures were 9.8 nM and 160 nM.
For `CCOc1ccccc1CC(=O)NS(=O)(=O)Cc1ccc(N2Cc3c(c(OCC)c4cccnc4c3OCC)C2=O)c(C)c1` the same measures were 0.27 nM and 8.9 nM.
For `CCOc1c2c(c(OCC)c3ccccc13)C(=O)N(c1ccc(CS(=O)(=O)NC(=O)C3CCCc4ccccc43)cc1)C2` (stereo unspecified) the same measures were 1 nM and 940 nM.
Turning to `CCOc1c2c(c(OCC)c3ncccc13)C(=O)N(c1ccc(CS(=O)(=O)NC(=O)Cc3ccccc3)cc1C)C2`, the Ki worked out at 3.3 nM in [1] and 660 nM in [2].
For `CS(=O)(=O)c1ccc(C2=C(c3ccccc3)C(=O)OC2)cc1` [ROFECOXIB], the ED50 in the assay filed under Rattus norvegicus worked out at 0.74 mg/kg.
For the compound `CCOc1c2c(c(OCC)c3ccccc13)C(=O)N(c1ccc(CS(=O)(=O)NC(=O)Cn3nccc3C)cc1)C2`, the figures for the inhibition constant (Ki) in [1] and in assay [2] were 2 nM and 600 nM, respectively.
For `CCOc1c2c(c(OCC)c3ncccc13)CN(c1ccc(CS(=O)(=O)NC(=O)Cc3ccccn3)cc1C)C2=O`, in that order: 2.4 nM and 13 nM.
Consider `COc1cccc(OC)c1C1(C(=O)NS(=O)(=O)Cc2ccc(N3Cc4c(c(OCC(F)(F)F)c5cccnc5c4OCC(F)(F)F)C3=O)c(C)c2)CC1`, for which the Ki at Prostacyclin receptor stood at 2000 nM; in [1], 0.79 nM; in assay [3], 340 nM; in [4] it was 53 nM; at Thromboxane A2 receptor, 39 nM; in assay [2] it was 1.6 nM. The inhibition constant (Ki) was more than 9000 nM in assay [5], 300 nM in assay [6] and 2700 nM in [7]. For the same compound, the ED50 in the assay filed under Rattus norvegicus was 0.005 mg/kg.
Consider `CCOc1c2c(c(OCC)c3ncccc13)CN(c1ccc(CS(=O)(=O)NC(=O)Cc3ccccc3OC(F)F)cc1C)C2=O`, for which the Ki in assay [1] was determined as 0.32 nM; in assay [2], 13 nM.
For `CCOc1c2c(c(OCC)c3ncccc13)CN(c1ccc(CS(=O)(=O)NC(=O)Cc3ccccc3F)cc1C)C2=O`, in that order: 0.48 nM and 34 nM.
For `CCOc1c2c(c(OCC)c3ccccc13)C(=O)N(c1ccc(CS(=O)(=O)NC(=O)Cc3ccccc3)cc1C)C2` the same measures were 0.25 nM and 29 nM.
For `CCOc1c2c(c(OCC)c3ncccc13)CN(c1ccc(CS(=O)(=O)NC(=O)Cc3cccnc3)cc1C)C2=O` the same measures were 2.8 nM and 48 nM.
In the case of `CCOc1c2c(c(OCC)c3ncccc13)CN(c1ccc(CS(=O)(=O)NC(=O)Cc3ccccc3)cc1C)C2=O`, the Ki in [1] is 0.76 nM; in [2], 31 nM.
In the case of `COc1ccccc1CC(=O)NS(=O)(=O)Cc1ccc(N2Cc3c(c(OCC(F)(F)F)c4cccnc4c3OCC(F)(F)F)C2=O)c(C)c1`, the Ki in assay [1] is 0.38 nM; in [2], 17 nM.
For `CCOc1c2c(c(OCC)c3ccccc13)C(=O)N(c1ccc(CS(=O)(=O)NC(=O)C(c3ccccc3)c3ccccc3)cc1)C2`, in that order: 7.9 nM and more than 4000 nM.
For `CCOc1c2c(c(OCC)c3ncccc13)CN(c1ccc(CS(=O)(=O)NC(=O)C3(c4c(OC)cccc4OC)CC3)cc1C)C2=O`, in that order: 0.54 nM and 2.3 nM.
For `CCOc1c2c(c(OCC)c3ccccc13)C(=O)N(c1ccc(CS(=O)(=O)NC(=O)Cc3ccccc3)cc1)C2` the same measures were 0.31 nM and more than 4000 nM.
Take `COc1ccccc1CC(=O)NS(=O)(=O)Cc1ccc(N2Cc3c(c(OC(C)C)c4cccnc4c3OC(C)C)C2=O)c(C)c1`: the inhibition constant (Ki) in assay [1] amounted to 0.36 nM; in assay [2] it was 26 nM.
For `CCOc1c2c(c(OCC)c3ncccc13)CN(c1ccc(CS(=O)(=O)NC(=O)Cc3ccccc3C(F)(F)F)cc1C)C2=O` the same measures were 0.43 nM and 350 nM.
For `CCOc1c2c(c(OCC)c3ccccc13)C(=O)N(c1ccc(CS(=O)(=O)NC(=O)Cc3cccc(OC)c3)cc1)C2` the same measures were 2.4 nM and 1600 nM.
For `CCOc1c2c(c(OCC)c3ncccc13)CN(c1ccc(CS(=O)(=O)NC(=O)Cc3ccccc3OC(F)(F)F)cc1C)C2=O`, in that order: 0.21 nM and 56 nM.
Regarding `COc1ccccc1C1(C(=O)NS(=O)(=O)Cc2ccc(N3Cc4c(c(OCC(F)(F)F)c5cccnc5c4OCC(F)(F)F)C3=O)c(C)c2)CC1`, the inhibition constant (Ki) worked out at 0.95 nM in assay [1] and 12 nM in assay [2].
For `CCOc1c2c(c(OCC)c3ncccc13)CN(c1ccc(CS(=O)(=O)NC(=O)Cc3c(Cl)cccc3Cl)cc1C)C2=O` the same measures were 0.28 nM and 4.8 nM.
